In US9006191B2, “Silencing of polo-like kinase expression using interfering RNA” (Protiva Biotherapeutics, Inc., priority 2007, dated 2015):

Columns and labels:
IFIT1 mRNA, serum IFNα = conditions: mouse, in vivo, iv
Method: Balb/c mice (n=4 per group) were administered 2.5 mg/kg siRNA or lipid vehicle; serum IFNα (pg/mL) and IFIT1 mRNA (relative to GAPDH) from whole liver lysates were assessed after 4, 8, and 16 h by ELISA and bDNA assay, respectively. […] (b) Serum IFNα and (c) liver IFIT1 mRNA were assessed 4 h after administration (mean+SD, n=4).
SNALP-formulated Luc (unmodified) and the 2′OMe-modified Luc-U/U, PLK1424-2/A, PLK773-1/B, or KSP2263-U/U siRNA were administered at 2 mg/kg i.v. to Balb/C mice. (A) IFIT1 relative to GAPDH mRNA in liver and spleen was assessed at 4 h by bDNA analysis. […] Serum IFNα was assessed at 6 h by ELISA. […] Values represent mean+SD (n=4).
IFIT1 mRNA and serum cytokines were assessed 4-6 h after SNALP administration based on the approximate time of peak response for these markers. In these studies, SNALP-formulated native Luc siRNA (Table 6) was used as a positive control for immune stimulation.
In vivo immune stimulation assays. […] 6-8 week old Balb/C mice were obtained from Harlan and subject to a two week acclimation period prior to use. Mice were administered SNALP formulated siRNA (2 mg/kg) in PBS via standard intravenous injection in the lateral tail vein. Blood was collected by cardiac puncture and processed as plasma for cytokine analysis. Liver and spleen were collected into RNALater (Sigma Co.) for IFIT1 mRNA analysis.
Measurement of IFIT1 mRNA in mouse tissues. Murine liver and spleen were processed for bDNA assay to quantitate IFIT1 mRNA as described above. The IFIT1 probe set was specific to mouse IFIT1 mRNA (positions 4-499 of NM—008331) and the GAPDH probe set was specific to mouse GAPDH mRNA (positions 9-319 of NM—008084). Data is shown as the ratio of IFIT1 relative light units (RLU) to GAPDH RLU.
Cytokine ELISA. All cytokines were quantified using sandwich ELISA kits. These were mouse interferon-α (PBL Biomedical; Piscataway, N.J.) and human and mouse IL-6 (BD Biosciences; San Diego, Calif.).

[1] = system: anti-PEG-lipid IgG and IgM antibodies; assay: In vivo PEG-lipid antibody induction assay; parameters: species or system mouse; conditions: CD1 ICR mice, 1:57 SNALP IV at Days 0, 7, 14; plasma Days 7, 14, 21
Method: In vivo PEG-lipid antibody induction assays. Animal studies were performed to test for the induction of an antibody response to 2′OMe-modified PLK1424 siRNAs that were encapsulated in a 1:57 SNALP formulation containing the lipid conjugate PEG-cDMA. Six-week-old female CD1 ICR mice were used in this study. […] Mice were then sacrificed on Day 21. The tolerability of the treatment regime was monitored by animal appearance, behavior, and body weight. Anti-PEG-lipid IgG and IgM antibodies in plasma at Days 7, 14, and 21 were measured by ELISA.

HepG2 cells = assay: HepG2 cell viability assay; assay type: cell-based, human; conditions: PLK1424 SNALP 0.31-5 nM, 72 h

| Substance | serum IFNα / serum cytokine response (IFIT1 mRNA, serum IFNα) | IgG / IgM antibody response against PEG-lipid (PEG-cDMA) [1] | cell viability (HepG2 cells) |
| --- | --- | --- | --- |
| PLK1424-2/A: 2′OMe-modified PLK1424 duplex, SEQ ID NO:214/215 (same SEQ IDs as PLK1424 1/3 of Table 11) (chain 1 AGANCACCCNCCUNAAANAUU; chain 2 UAUUUAANGAGGGUGANCUUU; siRNA; 2'-O-methyl modifications at selected positions, key for n not given here) | no measurable IFNα | substantially less immunogenic than SNALP containing the corresponding unmodified PLK1424 siRNA sequence | – |
| PLK1424: siRNA to human PLK-1, SEQ ID NO:1/2 (UU overhang form 211/212) (chain 1 AGAUCACCCUCCUUAAAUA; chain 2 UAUUUAAGGAGGGUGAUCU; further chemistry not given here) | – | – | potent activity |
